Experimental data reported in patent US20230399341A1, “7-PHENYL SUBSTITUTED 2-AMINOQUINAZOLINE INHIBITORS OF HPK1” (MERCK SHARP & DOHME LLC, priority 2020, published 2023).
pIC50: −log10 of the molar value.

Each compound was assayed against T1, Human HPK1, catalytic domain (Homo sapiens, UniProt Q92918) (assay: HPK1-SLP76 TR-FRET Assay). Conditions: 75 pM HPK1, ATP 10 uM, SLP76 10 nM, 30 min pre-incubation, 60 min reaction.
T1 sequence (Q92918 1-346): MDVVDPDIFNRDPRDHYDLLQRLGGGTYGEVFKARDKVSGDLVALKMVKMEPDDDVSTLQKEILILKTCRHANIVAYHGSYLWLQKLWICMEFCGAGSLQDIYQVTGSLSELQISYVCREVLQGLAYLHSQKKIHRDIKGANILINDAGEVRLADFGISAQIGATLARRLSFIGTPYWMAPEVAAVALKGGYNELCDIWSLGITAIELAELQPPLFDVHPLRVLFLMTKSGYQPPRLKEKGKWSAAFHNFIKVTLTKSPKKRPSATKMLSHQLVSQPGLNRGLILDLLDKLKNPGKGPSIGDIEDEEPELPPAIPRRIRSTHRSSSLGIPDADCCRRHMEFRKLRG
Format: biochemical

Question: `COc1cc2c(cc1Nc1ncc3ccc(-c4cnc5c(C#N)cnn5c4)cc3n1)CN(C)CC2` [Compound 1-22, 6-{2-[(6-methoxy-2-methyl-1,2,3,4-tetrahydroisoquinolin-7-yl)amino]quinazolin-7-yl}pyrazolo[1,5-a]pyrimidine-3-carbonitrile] was tested. Which pIC50 did it give?
Answer: 6.13

Question: `CCNC(=O)c1ccc(-c2ccc3cnc(Nc4cc5c(cc4OC)CCN(C)C5)nc3c2)cn1` [Compound 1-23, N-ethyl-5-{2-[(6-methoxy-2-methyl-1,2,3,4-tetrahydroisoquinolin-7-yl)amino]quinazolin-7-yl}pyridine-2-carboxamide] was tested. Which pIC50 did it give?
Answer: 6.16

Question: `COc1cc2c(cc1Nc1ncc3ccc(-c4cncc5cccnc45)cc3n1)CN(C)CC2` [Compound 1-24, N-(6-methoxy-2-methyl-1,2,3,4-tetrahydroisoquinolin-7-yl)-7-(1,6-naphthyridin-8-yl)quinazolin-2-amine] was tested. Which pIC50 did it give?
Answer: 7.98

Question: `COc1cc2c(cc1Nc1ncc3ccc(-c4cnc5cccnc5c4)cc3n1)CN(C)CC2` [Compound 1-25, N-(6-methoxy-2-methyl-1,2,3,4-tetrahydroisoquinolin-7-yl)-7-(,15-naphthyridin-3-yl)quinazolin-2-amine] was tested. Which pIC50 did it give?
Answer: 7.70

Question: With `COc1cc2c(cc1Nc1ncc3ccc(-c4cnn(C(F)F)c4)cc3n1)CN(C)CC2` [Compound 1-26, 7-[1-(difluoromethyl)-1H-pyrazol-4-yl]-N-(6-methoxy-2-methyl-1,2,3,4-tetrahydroisoquinolin-7-yl)quinazolin-2-amine] as the compound, how does the pIC50 read?
Answer: 7.97

Question: `COc1cc2c(cc1Nc1ncc3ccc(-c4ccc(N)nc4)cc3n1)CNCC2` [Compound 1-27, 7-(6-aminopyridin-3-yl)-N-(6-methoxy-1,2,3,4-tetrahydroisoquinolin-7-yl)quinazolin-2-amine] was tested. Which pIC50 did it give?
Answer: 8.00

Question: How did the pIC50 turn out when `CNC(=O)c1ccc(-c2ccc3cnc(Nc4cc5c(cc4OC)CCNC5)nc3c2)cn1` [Compound 1-28, 5-{2-[(6-methoxy-1,2,3,4-tetrahydroisoquinolin-7-yl)amino]quinazolin-7-yl}-N-methylpyridine-2-carboxamide] was run?
Answer: 6.70

Question: With `COc1cc2c(cc1Nc1ncc3ccc(-c4cnc5c(c4)OCCN5C)cc3n1)CNCC2` [Compound 1-29, N-(6-methoxy-1,2,3,4-tetrahydroisoquinolin-7-yl)-7-(4-methyl-3,4-dihydro-2H-pyrido[3,2-b][1,4]oxazin-7-yl)quinazolin-2-amine] as the compound, how does the pIC50 read?
Answer: 7.07

Question: `COc1cc2c(cc1Nc1ncc3ccc(-c4ccc(NC(C)=O)nc4)cc3n1)CNCC2` [Compound 1-30, N-(5-{2-[(6-methoxy-1,2,3,4-tetahydroisoquinolin-7-yl)amino]quinazolin-7-yl}pyridin-2-yl)acetamide] was tested. Which pIC50 did it give?
Answer: 7.34

Question: How did the pIC50 turn out when `COc1cc2c(cc1Nc1ncc3ccc(-c4cccc(N)c4C)cc3n1)CNCC2` [Compound 1-31, 7-(3-amino-2-methylphenyl)-N-(6-methoxy-1,2,3,4-tetrahydroisoquinolin-7-yl)quinazolin-2-amine] was run?
Answer: 6.69

Question: How did the pIC50 turn out when `COc1cc2c(cc1Nc1ncc3ccc(-c4ccc(S(N)(=O)=O)cc4C)cc3n1)CNCC2` [Compound 1-32, 4-{2-[(6-methoxy-1,2,3,4-tetrahydroisoquinolin-7-yl)amino]quinazolin-7-yl}-3-methylbenzene-1-sulfonamide] was run?
Answer: 6.97

Question: `COc1cc2c(cc1Nc1ncc3ccc(-c4ccc(C#N)cc4C)cc3n1)CNCC2` [Compound 1-33, 4-{2-[(6-methoxy-1,2,3,4-tetrahydroisoquinolin-7-yl)amino]quinazolin-7-yl}-3-methylbenzonitrile] was tested. Which pIC50 did it give?
Answer: 6.87

Question: `COc1cc2c(cc1Nc1ncc3ccc(-c4cnn(C)c4)cc3n1)CNCC2` [Compound 1-34, N-(6-methoxy-1,2,3,4-tetrahydroisoquinolin-7-yl)-7-(1-methyl-1H-pyrazol-4-yl)quinazolin-2-amine] was tested. Which pIC50 did it give?
Answer: 8.83

Question: `COc1cc2c(cc1Nc1ncc3ccc(-c4cnn5c4CCC5)cc3n1)CNCC2` [Compound 1-35, 7-(5,6-dihydro-4H-pyrrolo[1,2-b]pyrazol-3-yl)-N-(6-methoxy-1,2,3,4-tetrahydroisoquinolin-7-yl)quinazolin-2-amine] was tested. Which pIC50 did it give?
Answer: 9.16

Question: With `COc1cc2c(cc1Nc1ncc3ccc(-c4cncc(C#N)c4)cc3n1)CNCC2` [Compound 1-36, 5-{2-[(6-methoxy-1,2,3,4-tetrahydroisoquinolin-7-yl)amino]quinazolin-7-yl}pyridine-3-carbonitrile] as the compound, how does the pIC50 read?
Answer: 6.74

Question: With `COc1cc2c(cc1Nc1ncc3ccc(-c4cncc(NS(C)(=O)=O)c4)cc3n1)CNCC2` [Compound 1-37, N-(5-{2-[(6-methoxy-1,2,3,4-tetrahydroisoquinolin-7-yl)amino]quinazolin-7-yl}pyridin-3-yl)methanesulfonamide] as the compound, how does the pIC50 read?
Answer: 7.55

Question: `COc1cc2c(cc1Nc1ncc3ccc(-c4cnccc4Cl)cc3n1)CNCC2` [Compound 1-38, 7-(4-chloropyridin-3-yl)-N-(6-methoxy-1,2,3,4-tetrahydroisoquinolin-7-yl)quinazolin-2-amine] was tested. Which pIC50 did it give?
Answer: 7.75

Question: `COc1ccc(-c2ccc3cnc(Nc4cc5c(cc4OC)CCNC5)nc3c2)cn1` [Compound 1-39, 7-(6-methoxypyridin-3-yl)-N-(6-methoxy-1,2,3,4-tetrahydroisoquinolin-7-yl)quinazolin-2-amine] was tested. Which pIC50 did it give?
Answer: 7.46

Question: How did the pIC50 turn out when `COc1cc2c(cc1Nc1ncc3ccc(-c4cccnc4)cc3n1)CNCC2` [Compound 1-40, N-(6-methoxy-1,2,3,4-tetrahydroisoquinolin-7-yl)-7-(pyridin-3-yl)quinazolin-2-amine] was run?
Answer: 8.05

Question: `COc1cc2c(cc1Nc1ncc3ccc(-c4cncc(C)c4)cc3n1)CNCC2` [Compound 1-41, N-(6-methoxy-1,2,3,4-tetrahydroisoquinolin-7-yl)-7-(5-methylpyridin-3-yl)quinazolin-2-amine] was tested. Which pIC50 did it give?
Answer: 8.01

Question: `COc1cc2c(cc1Nc1ncc3ccc(-c4cncc(N5CCOCC5)c4)cc3n1)CNCC2` [Compound 1-42, N-(6-methoxy-1,2,3,4-tetrahydroisoquinolin-7-yl)-7-[5-(morpholin-4-yl)pyridin-3-yl]quinazolin-2-amine] was tested. Which pIC50 did it give?
Answer: 7.41

Question: How did the pIC50 turn out when `COc1cc2c(cc1Nc1ncc3ccc(-c4cncc(S(C)(=O)=O)c4)cc3n1)CNCC2` [Compound 1-43, N-(6-methoxy-1,2,3,4-tetrahydroisoquinolin-7-yl)-7-[5-(methylsulfonyl)pyridin-3-yl]quinazolin-2-amine] was run?
Answer: 7.08

Question: `COc1cncc(-c2ccc3cnc(Nc4cc5c(cc4OC)CCNC5)nc3c2)c1` [Compound 1-44, 7-(5-methoxypyridin-3-yl)-N-(6-methoxy-1,2,3,4-tetrahydroisoquinolin-7-yl)quinazolin-2-amine] was tested. Which pIC50 did it give?
Answer: 8.02

Question: How did the pIC50 turn out when `COc1cc2c(cc1Nc1ncc3ccc(-c4cncc5[nH]ccc45)cc3n1)CNCC2` [Compound 1-45, N-(6-methoxy-1,2,3,4-tetrahydroisoquinolin-7-yl)-7-(1H-pyrrolo[2,3-c]pyridin-4-yl)quinazolin-2-amine] was run?
Answer: 9.05

Question: `COc1cc2c(cc1Nc1ncc3ccc(-c4ccncc4)cc3n1)CNCC2` [Compound 1-46, N-(6-methoxy-1,2,3,4-tetrahydroisoquinolin-7-yl)-7-(pyridin-4-yl)quinazolin-2-amine] was tested. Which pIC50 did it give?
Answer: 7.23

Question: How did the pIC50 turn out when `COc1cc2c(cc1Nc1ncc3ccc(-c4cncc(C(=O)N5CCOCC5)c4)cc3n1)CNCC2` [Compound 1-47, (5-{2-[(6-methoxy-1,2,3,4-tetrahydroisoquinolin-7-yl)amino]quinazolin-7-yl}pyridin-3-yl)(morpholin-4-yl)methanone] was run?
Answer: 6.56

Question: How did the pIC50 turn out when `COc1cc2c(cc1Nc1ncc3ccc(-c4ccc(NCCN5CCOCC5)nc4)cc3n1)CNCC2` [Compound 1-48, N-(6-methoxy-1,2,3,4-tetrahydroisoquinolin-7-yl)-7-(6-{[2-(morpholin-4-yl)ethyl]amino}pyridin-3-yl)quinazolin-2-amine] was run?
Answer: 6.41

Question: How did the pIC50 turn out when `COc1cc2c(cc1Nc1ncc3ccc(-c4cncc(CN)c4)cc3n1)CNCC2` [Compound 1-49, 7-[5-(aminomethyl)pyridin-3-yl]-N-(6-methoxy-1,2,3,4-tetrahydroisoquinolin-7-yl)quinazolin-2-amine] was run?
Answer: 8.49

Question: `COc1cc2c(cc1Nc1ncc3ccc(-c4cncc(N5CCNCC5)c4)cc3n1)CNCC2` [Compound 1-50, N-(6-methoxy-1,2,3,4-tetrahydroisoquinolin-7-yl)-7-[5-(piperazin-1-yl)pyridin-3-yl]quinazolin-2-amine] was tested. Which pIC50 did it give?
Answer: 8.23

Question: How did the pIC50 turn out when `COc1cc2c(cc1Nc1ncc3ccc(-c4cncc(NS(=O)(=O)C(C)C)c4)cc3n1)CNCC2` [Compound 1-51, N-(5-{2-[(6-methoxy-1,2,3,4-tetrahydroisoquinolin-7-yl)amino]quinazolin-7-yl}pyridin-3-yl)propane-2-sulfonamide] was run?
Answer: 7.32

Question: How did the pIC50 turn out when `CCC(=O)Nc1cncc(-c2ccc3cnc(Nc4cc5c(cc4OC)CCNC5)nc3c2)c1` [Compound 1-52, N-(5-{2-[(6-methoxy-1,2,3,4-tetrahydroisoquinolin-7-yl)amino]quinazolin-7-yl}pyridin-3-yl)propanamide] was run?
Answer: 7.96

Question: How did the pIC50 turn out when `COc1cc2c(cc1Nc1ncc3ccc(-c4cncc(CO)c4)cc3n1)CNCC2` [Compound 1-53, (5-{2-[(6-methoxy-1,2,3,4-tetrahydroisoquinolin-7-yl)amino]quinazolin-7-yl}pyridin-3-yl)methanol] was run?
Answer: 8.25

Question: How did the pIC50 turn out when `COc1cc2c(cc1Nc1ncc3ccc(-c4cncc(N5CCN(C)CC5)c4)cc3n1)CNCC2` [Compound 1-54, N-(6-methoxy-1,2,3,4-tetrahydroisoquinolin-7-yl)-7-[5-(4-methylpiperazin-1-yl)pyridin-3-yl]quinazolin-2-amine] was run?
Answer: 7.72

Question: `COc1cc2c(cc1Nc1ncc3ccc(-c4cccc(CC#N)c4)cc3n1)CNCC2` [Compound 1-55, (3-{2-[(6-methoxy-1,2,3,4-tetrahydroisoquinolin-7-yl)amino]quinazolin-7-yl}phenyl)acetonitrile] was tested. Which pIC50 did it give?
Answer: 7.28
